# Patent publication US5654320A, “Indazolecarboxamides” (Eli Lilly and Company, priority 1995, dated 1997)
# Counter-ions that a name gives are not always drawn.
# System: 5-HT4 receptor
# Assay: not given
# Conditions: presently known compound; cited from earlier work
row,Compound,affinity at the 5-HT4 receptor
1,COc1cc(N)c(Cl)cc1C(=O)NC1CCN(CCCOc2ccc(F)cc2)CC1OC (centres unmarked) [cisapride],high affinity

# Target: T1, 5-HT4 receptor (Rattus norvegicus, UniProt Q62758)
# T1 construct: esophagus smooth muscle, freshly removed from male Wistar rats; from tissue; host or cells: esophagus smooth muscle of male Wistar rats
# Assay: 5-HT4 receptor antagonism in carbamylcholine-contracted isolated esophagus smooth muscle (antagonism of serotonin-induced relaxation)
# Set-up: species or system male Wistar rats
# Conditions: not given
# Experimental: The test was carried out in esophagus smooth muscle, freshly removed from male Wistar rats weighing 250-300 g each. The rats were killed by cervical dislocation, and the esophagus was removed and dissected free of connective tissue. The esophagi were used as longitudinal preparations--obtaining two preparations from each animal. The tissues were tied with thread at each end with the lower end being tied to a stationary glass rod and the upper end to a force transducer.
# Tissues were mounted in organ baths containing 10 mL of modified Krebs' solution of the following composition (millimolar) NaCl 118.2; KCl 4.6; CaCl2.2H2 O 1.6; KH2 PO4 1.2; MgSO4 1.2; dextrose 10.0; and NaHCO3 24.8. Tissue bath solutions were maintained at 37° C. and aerated with 95% O2 -5% CO2. Tissues were placed under optimum resting force, 1 g, and were allowed to equilibrate for 1 hr before exposure to drugs. Isometric contractions were recorded as changes in grams of force on the Modular Instruments Inc. (Malvern, Pa.) model M4000 data acquisition system with Sensotec (Columbus, Ohio) model MBL 5514-02 transducers.
# For studies with partial agonists or antagonists, tissues were preincubated with vehicle or antagonist for 45 min. All drugs were prepared daily in deionized water and kept on ice during the course of the experiment. The tissues were contracted by incubation with 10^-7 -10^-5 M carbamylcholine, and were relaxed by the addition of serotonin at 10^-8 -10^-10 M, which treatment relaxed the tissue and reduced the contraction caused by carbamylcholine. Addition of a compound of the present invention antagonized the serotonin response and reduced the observed relaxations of the tissue. Repeated tests of each compound at various concentrations were carried out, and the concentration that caused a two-fold shift of the relaxation curve was calculated. That concentration is reported here as the negative logarithm. In each case, the SEM of the data has been calculated and is shown below, as is the number of experiments carried out with each compound.
# T1 sequence (Q62758 whole entry): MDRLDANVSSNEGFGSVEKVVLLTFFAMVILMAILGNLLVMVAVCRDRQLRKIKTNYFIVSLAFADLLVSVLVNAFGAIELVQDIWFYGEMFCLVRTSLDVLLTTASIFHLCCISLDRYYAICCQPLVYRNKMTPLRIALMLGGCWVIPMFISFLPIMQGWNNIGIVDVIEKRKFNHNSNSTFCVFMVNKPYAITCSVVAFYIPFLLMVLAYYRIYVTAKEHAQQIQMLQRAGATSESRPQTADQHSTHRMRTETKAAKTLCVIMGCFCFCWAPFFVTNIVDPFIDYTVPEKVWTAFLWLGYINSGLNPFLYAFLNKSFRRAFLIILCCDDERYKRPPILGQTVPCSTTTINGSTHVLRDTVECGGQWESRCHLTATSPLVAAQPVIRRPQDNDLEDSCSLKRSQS
row,Compound,Kb
1,"CCCC(=O)NC1CCN(CCNC(=O)c2nn(C(C)C)c3ccccc23)CC1 [Example 30, N-[2-(4-butyrylamino-1-piperidinyl)ethyl]-1-(2-propyl)-1H-indazole-3-carboxamide oxalate]",15.8 nM
2,"CC(C)n1nc(C(=O)NCCN2CCC(NC(=O)C34CC5CC(CC(O)(C5)C3)C4)CC2)c2ccccc21 [Example 37, N-[2-(4-(3-hydroxy-1-adamantylcarbonylamino)-1-piperidinyl)ethyl]-1-(2-propyl)-1H-indazole-3-carboxamide oxalate]",1.26 nM
3,"CCCCC(=O)NC1CCN(CCNC(=O)c2nn(C(C)C)c3ccccc23)CC1 [Example 31, N-[2-(4-valerylamino-1-piperidinyl)ethyl]-1-(2-propyl)-1H-indazole-3-carboxamide]",20 nM
4,"CCC(=O)NC1CCN(CCNC(=O)c2nn(C(C)C)c3ccccc23)CC1 [Example 29, N-[2-(4-propionylamino-1-piperidinyl)ethyl]-1-(2-propyl)-1H-indazole-3-carboxamide oxalate]",3.16 nM
5,"CC(C)n1nc(C(=O)NCCN2CCOCC2)c2ccccc21 [Example 14, N-[2-(4-morpholinyl)ethyl]-1-(2-propyl)-1H-indazole-3-carboxamide hydrochloride]",25.1 nM
6,"CC(C)n1nc(C(=O)NCCN2CCC(N)CC2)c2ccccc21 [Example 23, N-[2-(4-amino-1-piperidinyl)ethyl]-1-(2-propyl)-1H-indazole-3-carboxamide dioxalate]",158 nM
7,"CC(C)n1nc(C(=O)NCCN2CCC(NC(=O)C34CC5CC(CC(C5)C3)C4)CC2)c2ccccc21 [Example 27, N-[2-(4-(1-adamantylcarbonylamino)-1-piperidinyl)ethyl]-1-(2-propyl)-1H-indazole-3-carboxamide oxalate]",0.126 nM
8,"CC(C)n1nc(C(=O)NCCN2CCN(Cc3ccccc3)CC2)c2ccccc21 [Example 16, N-[2-(4-benzyl-1-piperazinyl)ethyl]-1-(2-propyl)-1H-indazole-3-carboxamidedihydrochloride]",10 nM
9,"CC(C)n1nc(C(=O)NCCN2CCC(NC(=O)Nc3ccccc3)CC2)c2ccccc21 [Example 35, N-[2-(4-phenylaminocarbonylamino)-1-piperidinyl)ethyl]-1-(2-propyl)-1H-indazole-3-carboxamide oxalate]",10 nM
10,"CC(C)n1nc(C(=O)NCCN2CCC(NC(=O)c3ccccc3)CC2)c2ccccc21 [Example 25, N-[2-(4-benzoylamino-1-piperidinyl)ethyl]-1-(2-propyl)-1H-indazole-3-carboxamide oxalate]",2.51 nM
11,"CC(C)C(=O)NC1CCN(CCNC(=O)c2nn(C(C)C)c3ccccc23)CC1 [Example 32, N-[2-(4-isobutyrylamino-1-piperidinyl)ethyl]-1-(2-propyl)-1H-indazole-3-carboxamide oxalate]",2.51 nM
12,"CC(C)n1nc(C(=O)NCCN2CCC(NC(=O)C(C)(C)C)CC2)c2ccccc21 [Example 33, N-[2-(4-trimethylacetylamino-1-piperidinyl)ethyl]-1-(2-propyl)-1H-indazole-3-carboxamide oxalate]",3.16 nM
13,"CC(C)n1nc(C(=O)NCCCCN2CCCCC2)c2ccccc21 [Example 6, N-[4-(1-piperidinyl)butyl]-1-(2-propyl)-1H-indazole-3-carboxamide oxalate]",6.31 nM
14,"CC(C)n1nc(C(=O)NCCN2CCCCC2)c2ccccc21 [Example 2, N-[2-(1-piperidinyl)ethyl]-1-(2-propyl)-1H-indazole-3-carboxamide hydrochloride]",10 nM
15,"CC(C)n1nc(C(=O)NCCN2CCC(NC(=O)Cc3ccccc3)CC2)c2ccccc21 [Example 26, N-[2-(4-benzylcarbonylamino-1-piperidinyl)ethyl]-1-(2-propyl)-1H-indazole-3-carboxamide oxalate]",3.98 nM
16,"CC(C)n1nc(C(=O)NCCN2CCCC2)c2ccccc21 [Example 10, N-[2-(1-pyrrolidinyl)ethyl]-1-(2-propyl)-1H-indazole-3-carboxamide hydrochloride]",20 nM
17,"CC(C)n1nc(C(=O)NCCN2CCC(NC(=O)NCc3ccccc3)CC2)c2ccccc21 [Example 34, N-[2-(4-benzylaminocarbonylamino)-1-piperidinyl)ethyl]-1-(2-propyl)-1H-indazole-3-carboxamide oxalate]",5.01 nM
18,"CC(C)n1nc(C(=O)NCCN2CCC(NC(=O)OCc3ccccc3)CC2)c2ccccc21 [Example 8, N-[2-(4-benzyloxycarbonylamino-1-piperidinyl)ethyl]-1-(2-propyl)-1H-indazole-3-carboxamide oxalate]",1.58 nM
19,"CC(C)n1nc(C(=O)NCCN2CCC(NS(C)(=O)=O)CC2)c2ccccc21 [Example 24, N-[2-(4-methylsulfonylamino-1-piperidinyl)ethyl]-1-(2-propyl)-1H-indazole-3-carboxamide oxalate]",12.6 nM
20,"CC(C)n1nc(C(=O)NCCCN2CCCCC2)c2ccccc21 [Example 4, N-[3-(1-piperidinyl)propyl]-1-(2-propyl)-1H-indazole-3-carboxamide hydrochloride]",7.94 nM
21,"CC(=O)NC1CCN(CCNC(=O)c2nn(C(C)C)c3ccccc23)CC1 [Example 28, N-[2-(4-acetylamino-1-piperidinyl)ethyl]-1-(2-propyl)-1H-indazole-3-carboxamide oxalate]",5.01 nM
22,"CC(C)n1nc(C(=O)NCCN2CCC(NC(=O)C34CC5CC(C3)C(O)C(C5)C4)CC2)c2ccccc21 (centres unmarked) [Example 38, N-[2-(4-(4-hydroxy-1-adamantylcarbonylamino)-1-piperidinyl)ethyl]-1-(2-propyl)-1H-indazole-3-carboxamide oxalate]",2 nM
23,"CC(C)n1nc(C(=O)NCCN2CCN(C(=O)c3ccccc3)CC2)c2ccccc21 [Example 18, N-[2-(4-benzoyl-1-piperazinyl)ethyl]-1-(2-propyl)-1H-indazole-3-carboxamide oxalate]",31.6 nM
24,"CC(C)n1nc(C(=O)NCCN2CCC(Cc3ccccc3)CC2)c2ccccc21 [Example 20, N-[2-(4-benzyl-1-piperidinyl)ethyl]-1-(2-propyl)-1H-indazole-3-carboxamideoxalate]",50.1 nM
25,"CC(C)n1nc(C(=O)NCCN2CCc3ccccc3C2)c2ccccc21 [Example 22, N-[2-(1,2,3,4-tetrahydro-2-isoquinolinyl)ethyl]-1-(2-propyl)-1H-indazole-3-carboxamide oxalate]",10 nM
26,"CC(C)n1nc(C(=O)NCCN2CCCCCC2)c2ccccc21 [Example 12, N-[2-(1-hexamethyleneiminyl)ethyl]-1-(2-propyl)-1H-indazole-3-carboxamide hydrochloride]",10 nM
27,"CC(C)n1nc(C(=O)NCCN2CCC(NC(=O)Nc3ccc(F)cc3)CC2)c2ccccc21 [Example 36, N-[2-(4-(4-fluorophenylaminocarbonylamino)-1-piperidinyl)ethyl]-1-(2-propyl)-1H-indazole-3-carboxamide oxalate]",25.1 nM

# Same assay, conditions: negative logarithm of concentration that caused a two-fold shift of the serotonin relaxation curve; rat esophagus; 45 min preincubation; ± SEM (number of experiments); read-out: -Log KB (converted)
row,Compound,Kb
1,"O=C(NCCN1CCCCC1)c1n[nH]c2ccccc12 [Example 1, N-[2-(1-piperidinyl)ethyl]-1H-indazole-3-carboxamide hydrochloride]",31.6 nM
